Assays:
Type in all cases: cell-based
[1] = system: T-Rex 293 cell line SC3 cells having increased expression of androgen receptor protein; assay: Cellular growth inhibition, T-Rex 293 SC3 cells with doxycycline (increased androgen receptor expression); details: with 10 ng/mL doxycycline (increased androgen receptor), 72 hours, CellTiter-Glo 2.0
Experimental: (§1) The following types of cells were prepared for this experiment: (i) a T-Rex 293 cell line having increased expression of androgen receptor protein due to exposure to doxycycline and (ii) a T-Rex 293 cell line lacking increased expression of androgen receptor protein. Ability of the test compounds to inhibit proliferation of the foregoing cell types was evaluated according to the procedures set forth below.
(§2) The doxycycline-inducible androgen receptor protein expressing cell line was established using the following protocol: T-Rex 293 cells were purchased from Invitrogen (Cat #R71007) and transfected using Lipofectamine 2000 with the wild-type androgen receptor protein sequence cloned into the pcDNA4/TO vector. Transfected cells were selected using 400 μg/mL Zeocin (Invitrogen Cat #R25001). Following selection, single clones were raised and maintained in Dulbecco's Modified Eagle Medium (DMEM) supplemented with 10% w/w Tetracycline-free fetal bovine serum (FBS) and 250 μg/mL Zeocin. Clones were analyzed for expression of androgen receptor protein in the presence and absence of 10 ng/mL doxycycline (Sigma Cat #D9891), and a single doxycycline-inducible clone (hereinafter “SC3”) was selected for use in downstream assays.
(§3) The SC3 cells were seeded on poly-D-lysine coated, black clear-bottom 384-well plates at 2500/well, in 25 μL Phenol Red Free Dulbecco's Modified Eagle Medium (DMEM) supplemented with 10% w/w charcoal-dextran treated fetal bovine serum (FBS) and 1% w/w pen-strep, with or without 10 ng/mL doxycycline. Pen-Strep is a commercially available mixture of penicillin G and streptomycin, which is used in mammalian cell culture media to prevent bacterial contamination. Phenol Red Free Dulbecco's Modified Eagle Medium (DMEM) supplemented with 10% w/w charcoal-dextran treated fetal bovine serum (FBS) and 1% w/w pen-strep, with or without 10 ng/mL doxycycline is herein referred to as Treatment Medium. Following seeding of cells in the plates, the plates were spun at 300×g for 30 seconds, then equilibrated to room temperature for 30 minutes, and then deposited in a humidified tissue culture incubator maintained at 37° C. with 5% CO2.
(§4) At 24 hours after seeding of the cells, dilutions of test compound were prepared in DMSO and dissolved in Treatment Medium, to achieve a final DMSO concentration of 0.5% w/w, thereby providing the Test Compound Solution. A 25 μL aliquot of the Test Compound Solution was added to cells in the well plates. An equal volume of a solution containing DMSO and Treatment Medium was used as a negative control. Following treatment of cells with Test Compound Solution or said equal volume of a solution containing DMSO and Treatment Medium, the plates were spun at 300×g for 30 seconds, and then left in an incubator for 72 hours.
(§5) At the end of the treatment duration, cell viability was quantified with CellTiter-Glo 2.0 reagent (Promega Cat #G9243). For this purpose, plates were equilibrated to room temperature for 30 minutes, and then 25 μL of CellTiter-Glo 2.0 reagent was added to cells in the plate wells. Plates were then agitated on a shaker for two minutes at 500 rpm and subsequently incubated at room temperature for 10 minutes. Following incubation, the plates were spun at 3000×g for 30 seconds, then sealed with an optical adhesive cover, and luminescence readings were measured with an EnVision Plate Reader.
(§6) Data was normalized using zero luminescence for baseline. A four-parameter non-linear regression curve fit was applied to dose-response data in GraphPad Prism data analysis software to determine the half-maximal growth inhibitory concentration (GI50) for each test compound.

[2] = system: T-Rex 293 cell line SC3 cells lacking increased expression of androgen receptor protein; assay: Cellular growth inhibition, T-Rex 293 SC3 cells without doxycycline; details: not exposed to doxycycline, 72 hours, CellTiter-Glo 2.0
Experimental: as §1, §2, §3, §4, §5, §6

T47D cells = assay: Cellular growth inhibition assay for T47D cells; details: Homo sapiens, 72 hours, CellTiter-Glo 2.0
Experimental: (§7) T47D cells were purchased from American Type Cell Culture (ATCC Cat #HTB-133) and then seeded on poly-D-lysine coated, black clear-bottom 384-well plates at 3000/well in 25 μL Dulbecco's Modified Eagle Medium (DMEM) supplemented with 10% w/w Fetal bovine serum (FBS), 0.2 units/mL recombinant human insulin (Gibco Cat #12585014), and 1% w/w Pen-Strep. Pen-Strep is a commercially available mixture of penicillin G and streptomycin, which is used in mammalian cell culture media to prevent bacterial contamination. Dulbecco's Modified Eagle Medium (DMEM) supplemented with 10% w/w fetal bovine serum (FBS), 0.2 units/mL recombinant human insulin, and 1% w/w Pen-Strep is herein referred to as Treatment Medium. Following seeding of cells in the plates, the plates were spun at 300×g for 30 seconds, then equilibrated to room temperature for 30 minutes, and then deposited in a humidified tissue culture incubator maintained at 37° C. with 5% CO2.
as §4
as §5, with “Reader (Perkin Elmer).” for “Reader.”
as §6

VCaP cells = assay: Cellular growth inhibition assay for VCaP cells; details: Homo sapiens, 72 hours, CellTiter-Glo 2.0
Experimental: as §7, with “VCaP” for “T47D”, “#CRL2876)” for “#HTB-133)”, “5000/well” for “3000/well”, “(FBS)” for “(FBS), 0.2 units/mL recombinant human insulin (Gibco Cat #12585014),”, “(FBS)” for “(FBS), 0.2 units/mL recombinant human insulin,”
as §4
as §5, with “Reader. Data was normalized using zero luminescence for baseline.” for “Reader.”
A four-parameter non-linear regression curve fit was applied to dose-response data in GraphPad Prism data analysis software to determine the half-maximal growth inhibitory concentration (GI50) for each test compound.

| Structure (SMILES) | GI50 (T47D cells) | GI50 (VCaP cells) | GI50 [1] | GI50 [2] |
| --- | --- | --- | --- | --- |
| CN(CCNS(=O)(=O)c1ccc(Nc2ncc(Br)c(Nc3cccc(F)c3C(N)=O)n2)cc1)c1ncc(C(=O)N[C@H]2C(C)(C)[C@H](Oc3ccc(C#N)c(Cl)c3)C2(C)C)cn1 [Compound I-18, 2-((2-((4-((5-bromo-4-((2-carbamoyl-3-fluorophenyl)amino)pyrimidin-2-yl)amino)phenyl)sulfonamido)ethyl)(methyl)amino)-N-((1r,3r)-3-(3-chloro-4-cyanophenoxy)-2,2,4,4-tetramethylcyclobutyl)pyrimidine-5-carboxamide] | < 500 nM |  | 100 to 1000 nM | 100 to 1000 nM |
| CN(CCOCCOCCNS(=O)(=O)c1ccc(Nc2ncc(Br)c(Nc3cccc(F)c3C(N)=O)n2)cc1)c1ncc(C(=O)N[C@H]2C(C)(C)[C@H](Oc3ccc(C#N)c(Cl)c3)C2(C)C)cn1 [Compound I-19] | < 500 nM |  | > 3500 nM | > 3500 nM |
| CCc1cnn2c(NCc3ccc(N4CC(N5CCC(N6CCN(c7ncc(C(=O)N[C@H]8C(C)(C)[C@H](Oc9ccc(C#N)c(Cl)c9)C8(C)C)cn7)CC6)CC5)C4)nc3)cc(N3CCCC[C@H]3CCO)nc12 [Compound I-64] | < 500 nM | < 100 nM | < 100 nM | < 100 nM |
| COc1cc(F)ccc1-c1ccnc2[nH]c(C3CCN(CCOCCOCCOC4CCN(c5ncc(C(=O)N[C@H]6C(C)(C)[C@H](Oc7ccc(C#N)c(Cl)c7)C6(C)C)cn5)CC4)CC3)cc12 [Compound I-67, N-[3-(3-chloro-4-cyano-phenoxy)-2,2,4,4-tetramethyl-cyclobutyl]-2-[4-[2-[2-[2-[4-[4-(4-fluoro-2-methoxy-phenyl)-1H-pyrrolo[2,3-b]pyridin-2-yl]-1-piperidyl]ethoxy]ethoxy]ethoxy]-1-piperidyl]pyrimidine-5-carboxamide] | 1500 to 3000 nM | > 3500 nM | 100 to 1000 nM | 1000 to 3500 nM |
| CC(C)n1cc(-c2ccnc3[nH]c(C4CCN(CCOCCOCCOC5CCN(c6ncc(C(=O)N[C@H]7C(C)(C)[C@H](Oc8ccc(C#N)c(Cl)c8)C7(C)C)cn6)CC5)CC4)cc23)ccc1=O [Compound I-77] | 500 to 1500 nM | 100 to 1000 nM | 100 to 1000 nM | 100 to 1000 nM |
| CCc1cnn2c(NCc3ccc(N4CCN(C5CCN(C6CN(c7ncc(C(=O)N[C@H]8C(C)(C)[C@H](Oc9ccc(C#N)c(Cl)c9)C8(C)C)cn7)C6)CC5)CC4)nc3)cc(N3CCCC[C@H]3CCO)nc12 [Compound I-79] | < 500 nM | < 100 nM | < 100 nM | < 100 nM |

Continued, in another order:

| GI50 (T47D cells) | GI50 (VCaP cells) | Structure (SMILES) | GI50 [1] | GI50 [2] |
| --- | --- | --- | --- | --- |
| 1500 to 3000 nM | > 3500 nM | CCc1cnn2c(NCc3ccc(OCCN4CCN(CC5CCN(c6ncc(C(=O)N[C@H]7C(C)(C)[C@H](Oc8ccc(C#N)c(Cl)c8)C7(C)C)cn6)CC5)CC4)nc3)cc(N3CCCCC3)nc12 [Compound I-48] | 100 to 1000 nM | > 3500 nM |
| 1500 to 3000 nM | > 3500 nM | CCc1cnn2c(NCc3ccc(OCCCN4CCN(CC5CCN(c6ncc(C(=O)N[C@H]7C(C)(C)[C@H](Oc8ccc(C#N)c(Cl)c8)C7(C)C)cn6)CC5)CC4)nc3)cc(-c3ccccc3)nc12 [Compound I-49] | 100 to 1000 nM | > 3500 nM |
| > 3000 nM | > 3500 nM | CCc1cnn2c(NCc3ccc(OCCCN4CCN(CC5CCN(c6ncc(C(=O)N[C@H]7C(C)(C)[C@H](Oc8ccc(C#N)c(Cl)c8)C7(C)C)cn6)CC5)CC4)nc3)cc(N3CCCCC3)nc12 [Compound I-50, N-((1 r,3r)-3-(3-chloro-4-cyanophenoxy)-2,2,4,4-tetramethylcyclobutyl)-2-(4-((4-(3-((5-(((3-ethyl-5-(piperidin-1-yl)pyrazolo[1,5-a]pyrimidin-7-yl)amino)methyl)pyridin-2-yl)oxy)propyl)piperazin-1-yl)methyl)piperidin-1-yl)pyrimidine-5-carboxamide] | 100 to 1000 nM | > 3500 nM |
| < 500 nM | < 100 nM | CCc1cnn2c(NCc3ccc(OCCC4CCN(CC5CCN(c6ncc(C(=O)N[C@H]7C(C)(C)[C@H](Oc8ccc(C#N)c(Cl)c8)C7(C)C)cn6)CC5)CC4)nc3)cc(N3CCCC[C@H]3CCO)nc12 [Compound I-52] | < 100 nM | 100 to 1000 nM |
| < 500 nM | < 100 nM | CCc1cnn2c(NCc3ccc(N4CC(N5CCN(C6CCN(c7ncc(C(=O)N[C@H]8C(C)(C)[C@H](Oc9ccc(C#N)c(Cl)c9)C8(C)C)cn7)CC6)CC5)C4)nc3)cc(N3CCCC[C@H]3CCO)nc12 [Compound I-65] | < 100 nM | < 100 nM |
| 1500 to 3000 nM | 100 to 1000 nM | CCc1cnn2c(NCc3ccc(N4CC(N5CCC(C6CCN(c7ncc(C(=O)N[C@H]8C(C)(C)[C@H](Oc9ccc(C#N)c(Cl)c9)C8(C)C)cn7)CC6)CC5)C4)nc3)cc(N3CCCC[C@H]3CCO)nc12 [Compound I-66] | < 100 nM | > 3500 nM |
| 500 to 1500 nM | 100 to 1000 nM | CCc1cnn2c(NCc3ccc(N4CCC(OCCC5CCN(c6ncc(C(=O)N[C@H]7C(C)(C)[C@H](Oc8ccc(C#N)c(Cl)c8)C7(C)C)cn6)CC5)C4)nc3)cc(N3CCCC[C@H]3CCO)nc12 (stereo partly drawn) [Compound I-80] | < 100 nM | > 3500 nM |
| < 500 nM |  | CCc1cnn2c(NCc3ccc(N(C)CCCN4CCN(C5CN(c6ncc(C(=O)N[C@H]7C(C)(C)[C@H](Oc8ccc(C#N)c(Cl)c8)C7(C)C)cn6)C5)CC4)nc3)cc(N3CCCC[C@H]3CCO)nc12 [Compound I-81] |  |  |
